{
  "source": "ChEMBL document CHEMBL5537177",
  "about": "“Discovery of Potent Antimalarial Type II Kinase Inhibitors with Selectivity over Human Kinases” (J Med Chem, 2024)",
  "key": {"Plasmodium falciparum [1]": {"system": "Plasmodium falciparum", "assay": "Antimalarial activity against synchronized Plasmodium falciparum Dd2 assessed as reduction in parasite growth at early asexual stage treated 16 hrs post-invasion measured after 72 hrs by SYBR green I dye based microscopy", "format": "functional, organism-based"}, "[2]": {"assay": "Tmax in mouse at 2 mg/kg, iv", "format": "ADME, organism-based", "conditions": "in vivo"}, "Plasmodium falciparum [3]": {"system": "Plasmodium falciparum", "assay": "Antimalarial activity against artemisinin-sensitive synchronized early ring stage Plasmodium falciparum IPC 5188 (MRA-1239) clinical isolate assessed as decrease in parasite survival at ring stage at 10 times EC50 treated for 6 hrs followed by compound removal measured after 72 hrs by geimsa staining based microscopy", "format": "functional, organism-based"}, "Plasmodium falciparum [4]": {"system": "Plasmodium falciparum", "assay": "Antimalarial activity against patient-derived ring-stage Plasmodium falciparum clinical isolate from Busiu town of Uganda infected in O+ RBCs assessed as reduction in parasitemia incubated for 72 hrs by SYBR green I dye based analysis", "format": "functional, organism-based, RBC", "conditions": "Erythrocyte"}, "Plasmodium falciparum [5]": {"system": "Plasmodium falciparum", "assay": "Antimalarial activity against synchronized early ring stage Plasmodium falciparum 3D7 (MRA-152) clinical isolate assessed as decrease in parasite survival at ring stage at 10 times EC50 treated for 48 hrs followed by compound removal measured after 72 hrs by geimsa staining based microscopy", "format": "functional, organism-based"}, "Plasmodium berghei [6]": {"system": "Plasmodium berghei", "assay": "Antimalarial activity against […] Plasmodium berghei sporozoites expressing GFP-Luc SMcon infected in Swiss Webster mouse assessed as reduction in parasitemia at 15 to 50 mg/kg, iv pretreated for 6 hrs followed by parasite infection measured for 2 to 16 days post-infection by SYBR Green I dye based flow cytometry", "format": "functional, organism-based", "conditions": "dose 15-50 mg/kg, time 2.25-16.25 day"}, "[7]": {"assay": "AUC (infinity) in mouse at 10 mg/kg, po", "format": "ADME, organism-based", "conditions": "in vivo"}, "Plasmodium falciparum [8]": {"system": "Plasmodium falciparum", "assay": "microbe, parasite or virus in culture", "conditions": "Dd2, 72 h", "description": "Antiplasmodial activity against asynchronous Plasmodium falciparum Dd2 assessed as parasite growth reduction incubated for 72 hrs by SYBR Green I dye based analysis"}, "Plasmodium falciparum [9]": {"system": "Plasmodium falciparum", "assay": "Antimalarial activity against artemisinin-sensitive synchronized early ring stage Plasmodium falciparum IPC 5188 (MRA-1239) clinical isolate assessed as decrease in parasite survival at ring stage at 10 times EC50 treated for 48 hrs followed by compound removal measured after 72 hrs by geimsa staining based microscopy", "format": "functional, organism-based"}, "[10]": {"assay": "Tmax in mouse at 10 mg/kg, po", "format": "ADME, organism-based", "conditions": "in vivo"}, "Plasmodium falciparum [11]": {"system": "Plasmodium falciparum", "assay": "Antimalarial activity against synchronized Plasmodium falciparum Dd2 assessed as delay in rightward shift of YOYO-1 peak at 5 times EC50 treated 18 to 30 hrs post-invasion measured after 54 hrs post-invasion by flow cytometry", "format": "functional, organism-based", "conditions": "time 24-36 hrs"}, "HepG2": {"system": "HepG2", "assay": "Cytotoxicity against human HepG2 cells assessed as reduction in cell viability incubated for 48 hrs by MTS assay", "format": "toxicity, cell-based", "conditions": "hepg2"}, "Plasmodium falciparum [12]": {"system": "Plasmodium falciparum", "assay": "microbe, parasite or virus in culture", "conditions": "Dd2, 72 h", "remark": "listed apart in the source", "description": "Antimalarial activity against wild-type Plasmodium falciparum Dd2 assessed as reduction in parasitemia incubated for 72 hrs by SYBR green I dye based analysis"}, "MCF7": {"system": "MCF7", "assay": "Cytotoxicity against human MCF7 cells assessed as reduction in cell viability incubated for 48 hrs by MTS assay", "format": "toxicity, cell-based", "conditions": "mcf7"}, "Plasmodium falciparum [13]": {"system": "Plasmodium falciparum", "assay": "Antimalarial activity against ring-stage Plasmodium falciparum 3D7 infected in O+ RBCs assessed as reduction in parasitemia incubated for 72 hrs by SYBR green I dye based analysis", "format": "functional, organism-based, RBC", "conditions": "3D7, Erythrocyte"}, "Plasmodium falciparum [14]": {"system": "Plasmodium falciparum", "assay": "Resistance development in blood-stage Plasmodium falciparum Dd2-B2 assessed as drug irresistibility at 1 to 2 times EC50 measured till death", "format": "functional, organism-based"}, "Plasmodium falciparum [15]": {"system": "Plasmodium falciparum", "assay": "Antimalarial activity against artemisinin/piperaquine-resistant synchronized early ring stage Plasmodium falciparum IPC 6261 (MRA-1284) clinical isolate assessed as decrease in parasite survival at ring stage at 10 times EC50 treated for 48 hrs followed by compound removal measured after 72 hrs by geimsa staining based microscopy", "format": "functional, organism-based"}, "Plasmodium falciparum [16]": {"system": "Plasmodium falciparum", "assay": "Antimalarial activity against artemisinin/piperaquine-sensitive synchronized early ring stage Plasmodium falciparum IPC 5188 (MRA-1239) clinical isolate assessed as decrease in parasite survival at ring stage at 10 times EC50 treated for 6 to 48 hrs followed by compound removal measured after 72 hrs by geimsa staining based microscopy", "format": "functional, organism-based"}, "[17]": {"assay": "AUC (last) in mouse at 10 mg/kg, po", "format": "ADME, organism-based", "conditions": "in vivo"}, "Plasmodium falciparum [18]": {"system": "Plasmodium falciparum", "assay": "Parasiticidal activity against asynchronous blood-stage Plasmodium falciparum Dd2 at 10 times EC50 treated for 12 hrs followed by compound washout and measured for 4 days by flow cytometry", "format": "functional, organism-based"}, "Plasmodium falciparum [19]": {"system": "Plasmodium falciparum", "assay": "Antimalarial activity against artemisinin-resistant synchronized early ring stage Plasmodium falciparum IPC 5202 (MRA-1240) clinical isolate assessed as decrease in parasite survival at ring stage at 10 times EC50 treated for 6 hrs followed by compound removal measured after 72 hrs by geimsa staining based microscopy", "format": "functional, organism-based"}, "Plasmodium falciparum [20]": {"system": "Plasmodium falciparum", "assay": "Antimalarial activity against Plasmodium falciparum harboring PI4K S1320L mutation assessed as reduction in parasitemia incubated for 72 hrs by SYBR green I dye based analysis", "format": "functional, organism-based"}, "Plasmodium falciparum [21]": {"system": "Plasmodium falciparum", "assay": "Antimalarial activity against artemisinin/piperaquine-resistant synchronized early ring stage Plasmodium falciparum IPC 6261 (MRA-1284) clinical isolate assessed as decrease in parasite survival at ring stage at 10 times EC50 treated for 6 to 48 hrs followed by compound removal measured after 72 hrs by geimsa staining based microscopy", "format": "functional, organism-based"}, "[22]": {"assay": "Half life in mouse at 2 mg/kg, iv", "format": "ADME, organism-based", "conditions": "in vivo"}, "Plasmodium berghei [23]": {"system": "Plasmodium berghei", "assay": "Antimalarial activity against […] Plasmodium berghei sporozoites expressing GFP-Luc SMcon infected in Swiss Webster mouse assessed as decrease in recrudescence at 15 to 50 mg/kg, iv pretreated for 6 hrs followed by parasite infection measured after 90 days post-infection by SYBR Green I dye based flow cytometry", "format": "functional, organism-based", "conditions": "dose 15-50 mg/kg, time 90.25 day"}, "[24]": {"assay": "AUC (infinity) in mouse at 2 mg/kg, iv", "format": "ADME, organism-based", "conditions": "in vivo"}, "Plasmodium falciparum [25]": {"system": "Plasmodium falciparum", "assay": "Antimalarial activity against synchronized Plasmodium falciparum Dd2 assessed as reduction in parasite growth at early asexual stage treated 26 hrs post-invasion measured after 72 hrs by SYBR green I dye based microscopy", "format": "functional, organism-based"}, "Plasmodium falciparum [26]": {"system": "Plasmodium falciparum", "assay": "Antimalarial activity against artemisinin-resistant synchronized early ring stage Plasmodium falciparum IPC 5202 (MRA-1240) clinical isolate assessed as decrease in parasite survival at ring stage at 10 times EC50 treated for 48 hrs followed by compound removal measured after 72 hrs by geimsa staining based microscopy", "format": "functional, organism-based"}, "Plasmodium falciparum [27]": {"system": "Plasmodium falciparum", "assay": "Antimalarial activity against synchronous blood-stage Plasmodium falciparum 3D7 assessed as parasite clearance time at 10 times EC50 treated every 24 hrs for 120 hrs followed by compound washout and subsequent addition of RBCs measured after 21 days by parasite reduction ratio assay", "format": "functional"}, "[28]": {"assay": "Cmax in mouse at 2 mg/kg, iv", "format": "ADME, organism-based", "conditions": "in vivo"}, "Plasmodium falciparum [29]": {"system": "Plasmodium falciparum", "assay": "Antimalarial activity against ring-stage Plasmodium falciparum Dd2 infected in O+ RBCs assessed as reduction in parasitemia incubated for 72 hrs by SYBR green I dye based analysis", "format": "functional, organism-based, RBC", "conditions": "Dd2, Erythrocyte"}, "[30]": {"assay": "Clearance in mouse at 10 mg/kg, po", "format": "ADME, organism-based", "conditions": "in vivo"}, "Plasmodium berghei [31]": {"system": "Plasmodium berghei", "assay": "Antimalarial activity against […] Plasmodium berghei sporozoites expressing GFP-Luc SMcon infected in Swiss Webster mouse assessed as reduction in parasitemia at 15 mg/kg, iv pretreated for 6 hrs followed by parasite infection measured after 2 to 6 days post-infection by IVIS imaging analysis", "format": "functional, organism-based", "conditions": "time 2.25-6.25 day"}, "Plasmodium falciparum [32]": {"system": "Plasmodium falciparum", "assay": "Antimalarial activity against synchronized Plasmodium falciparum Dd2 at 5 times EC50 treated 42 hrs post-invasion measured after 54 hrs post-invasion by YOYO-1 staining based flow cytometry", "format": "functional, organism-based", "conditions": "time 12.0 hrs"}, "Plasmodium berghei [33]": {"system": "Plasmodium berghei", "assay": "Antimalarial activity against Plasmodium berghei sporozoites expressing luciferase infected in human HepG2-A16-CD81 cells assessed as reduction in parasite growth incubated for 18 hrs", "format": "functional, organism-based", "conditions": "HepG2-A16-CD81, 18 h"}},
  "note": "The source made the active and inactive calls. The calls are words filed in the database; no cut-off is given here.",
  "data": [
    {"compound": "CCN1CCN(Cc2ccc(NC(=O)c3cc(Cl)cc(NC(=O)c4cncc(-c5cccs5)c4)c3)cc2C(F)(F)F)CC1", "values": [
      {"measurement": "EC50", "setting": "Plasmodium falciparum [1]", "result": 37.2, "unit": "nM"},
      {"measurement": "Tmax", "setting": "[2]", "result": 4.8, "unit": "min"},
      {"measurement": "Activity", "setting": "Plasmodium falciparum [3]", "result": "inactive"},
      {"measurement": "EC50", "setting": "Plasmodium falciparum [4]", "result": 9.2, "unit": "nM"},
      {"measurement": "Activity", "setting": "Plasmodium falciparum [5]", "result": "Active"},
      {"measurement": "Activity", "setting": "Plasmodium berghei [6]", "result": "Active"},
      {"measurement": "AUC(0-inf)", "setting": "[7]", "result": 1640, "unit": "ng·h/mL"},
      {"measurement": "EC50", "setting": "Plasmodium falciparum [8]", "result": 80, "unit": "nM"},
      {"measurement": "Activity", "setting": "Plasmodium falciparum [9]", "result": "Active"},
      {"measurement": "Tmax", "setting": "[10]", "result": 4.67, "unit": "h"},
      {"measurement": "Activity", "setting": "Plasmodium falciparum [11]", "result": "Active"},
      {"measurement": "EC50", "setting": "HepG2", "result": 2590, "unit": "nM"},
      {"measurement": "EC50", "setting": "Plasmodium falciparum [12]", "result": 51.2, "unit": "nM"},
      {"measurement": "EC50", "setting": "MCF7", "result": 3510, "unit": "nM"},
      {"measurement": "EC50", "setting": "Plasmodium falciparum [13]", "result": 10.2, "unit": "nM"},
      {"measurement": "Activity", "setting": "Plasmodium falciparum [14]", "result": "Active"},
      {"measurement": "Activity", "setting": "Plasmodium falciparum [15]", "result": "Active"},
      {"measurement": "EC50", "setting": "Plasmodium falciparum [16]", "result": 73.7, "unit": "nM"},
      {"measurement": "AUC(0-t)", "setting": "[17]", "result": 866, "unit": "ng·h/mL"},
      {"measurement": "Activity", "setting": "Plasmodium falciparum [18]", "result": "Active"},
      {"measurement": "Activity", "setting": "Plasmodium falciparum [19]", "result": "inactive"},
      {"measurement": "EC50", "setting": "Plasmodium falciparum [20]", "result": 59.2, "unit": "nM"},
      {"measurement": "EC50", "setting": "Plasmodium falciparum [21]", "result": 108, "unit": "nM"},
      {"measurement": "half-life", "setting": "[22]", "result": 4.16, "unit": "h"},
      {"measurement": "Activity", "setting": "Plasmodium berghei [23]", "result": "Active"},
      {"measurement": "AUC(0-inf)", "setting": "[24]", "result": 8160, "unit": "ng·h/mL"},
      {"measurement": "EC50", "setting": "Plasmodium falciparum [25]", "result": 69.7, "unit": "nM"},
      {"measurement": "Activity", "setting": "Plasmodium falciparum [26]", "result": "Active"},
      {"measurement": "T99.9%", "setting": "Plasmodium falciparum [27]", "result": "< 32", "unit": "h"},
      {"measurement": "Cmax", "setting": "[28]", "result": 11100, "unit": "ng/mL"},
      {"measurement": "EC50", "setting": "Plasmodium falciparum [29]", "result": 22.9, "unit": "nM"},
      {"measurement": "CL/F", "setting": "[30]", "result": 109, "unit": "mL/min/kg"},
      {"measurement": "Activity", "setting": "Plasmodium berghei [31]", "result": "Active"},
      {"measurement": "Activity", "setting": "Plasmodium falciparum [32]", "result": "Active"},
      {"measurement": "EC50", "setting": "Plasmodium berghei [33]", "result": 1770, "unit": "nM"}
    ]}
  ]
}
